In article PMC4890880 (ACS infectious diseases, 2016):
Like-named read-outs stand apart in the source and are kept apart here.

Key:
HepG2-A16-CD81EGFP cells = assay: cells; settings: Homo sapiens; for IC50: HepG2, read-out: Tox IC50; for inhibition at 50 µM: HepG2, read-out: Tox max inhibition (%) @ 50 uM
[1] = system: Plasmodium berghei (Pb-Luc) exoerythrocytic-stage parasites; assay: microbe, parasite or virus in culture
[2] = HepG2, read-out: HepG2 Tox% @ 50 uM rep1
[3] = HepG2, read-out: HepG2 Tox% @ 50 uM rep2
[4] = read-out: Inhibition% @ 50 uM rep1
[5] = read-out: Inhibition% @ 50 uM rep2
[6] = read-out: PbLuc IC50, dose response, 1/3 dilutions, max conc. 10 or 50 uM, unit inferred
[7] = read-out: PbLuc max inhibition (%) @ 50 uM
[8] = read-out: PbLuc IC50, dose response, unit inferred

Row | Structure (SMILES) | cytotoxicity at 50 µM (HepG2-A16-CD81EGFP cells; [2]) [%] | cytotoxicity at 50 µM (HepG2-A16-CD81EGFP cells; [3]) [%] | inhibition at 50 µM [1, 4] [%] | inhibition at 50 µM [1, 5] [%] | IC50 (HepG2-A16-CD81EGFP cells) [µM] | inhibition at 50 µM (HepG2-A16-CD81EGFP cells) [%] | IC50 [1, 6] [µM] | inhibition at 50 µM [1, 7] [%] | IC50 [1, 8] [µM]
1 | C=C(C)CCC(C)N1CCC(N2CCC(C(=O)NCCc3ccccc3)CC2)CC1 (stereo not drawn) [MMV666110] | 91 | 97 | 101 | 99 |  |  |  |  | 
2 | CCOc1c(Cl)cc(CNCC(O)c2ccccc2)cc1OC (stereo not drawn) [MMV396632] | 82 | 76 | 99 | 96 |  |  |  |  | 
3 | c1ccc(CNc2nc(Nc3ccccc3)nc3ccccc23)cc1 [MMV006169] | 101 |  | 103 | 104 |  |  |  |  | 
4 | COc1cc2c(cc1OC)C1=NNC(=O)C1=NC(C)(C)C2 [MMV084940] | 99 | 100 | 103 | 102 | 31.3 | 94 | 4.02 | 99 | 
5 | O=C(Nc1ccc(Cl)c(Cl)c1)Nc1ccc(Cl)c(Cl)c1 [MMV665852] | 100 |  | 103 | 104 | 4.86 | 101 | 0.669 | 100 | 
6 | O=C(NC(c1ccccc1)c1ccc2cccnc2c1O)c1ccccc1 (stereo not drawn) [MMV666080] | 92 | 93 | 101 | 102 | 4 | 84 | 1.55 | 101 | 
7 | COc1cccc(Cn2c(Oc3ccccc3)nc3c2c(=O)n(C)c(=O)n3C)c1 [MMV396705] | 47 |  | 99 | 99 |  |  |  |  | 
8 | CC1=C(CC(=O)c2cccc([N+](=O)[O-])c2)C(=O)c2ccccc2C1=O [MMV666125] | 100 |  | 103 | 104 | 21.1 | 99 | 4.26 | 99 | 
9 | CC(C)(C)CC(C)(C)NCC(O)COc1ccc2c(c1)CCC2 (stereo not drawn) [MMV665817] | 96 | 98 | 103 | 104 |  |  |  |  | 
10 | Cc1ccc2cc3c(N)c4c(C)ccc(C)c4nc3nc2c1 [MMV666079] | 97 |  | 103 | 104 | > 50 | 12 |  | 74 | 31.5
11 | O=C1C2=C(Nc3ccccc3SC2c2ccccc2)c2ccccc21 (stereo not drawn) [MMV645672] | 87 |  | 104 | 104 |  |  |  |  | 
12 | Cc1ccnc(NC(c2cccc(OCc3ccccc3)c2)c2ccc3cccnc3c2O)c1 (stereo not drawn) [MMV000720] | 99 |  | 103 | 103 | 5.05 | 99 | 1.28 | 100 | 
13 | CC(C)CCNCC(O)Cn1c2ccccc2c2ccccc21 (stereo not drawn) [MMV006787] | 98 |  | 103 | 103 | 30.3 | 97 | 9.6 | 99 | 
14 | CC1CC(C)CN(C(=O)c2ccc(Cl)cc2Cl)C1 (stereo not drawn) [MMV001344] | 74 | 88 | 98 | 98 |  |  |  |  | 
15 | CC(=O)c1sc(NC(=O)Nc2ccc(C)cc2C)nc1C [MMV665894] | -26 |  | 3.42 | -0.396 |  |  |  |  | 
16 | COc1ccc(C2c3ccc4ccccc4c3Oc3ncn(CCCN(C)C)c(=N)c32)cc1 (stereo not drawn) [MMV667491] | 99 |  | 103 | 103 | 10.7 | 93 | 4 | 94 | 
17 | CC(C)=CCN1CCC(C(=O)Nc2ccc(-c3nc4ccccc4[nH]3)cc2)CC1 [MMV665946] | 98 | 99 | 100 | 101 |  |  |  |  | 
18 | CC(C)(C)c1ccc2c(c1)CN(Cc1ccc(Cl)cc1)CO2 [MMV000442] | 97 |  | 100 | 101 |  |  |  |  | 
19 | Cc1cc(NC(=O)C2c3ccccc3C(=O)N(CC(C)C)C2c2cccs2)no1 (stereo not drawn) [MMV006429] | 15 | 18 | 103 | 104 | > 50 | 18 |  | 96 | 21.4
20 | Nc1ccc(-c2nc3cc(Oc4ccc(Oc5ccc6[nH]c(-c7ccc(N)cc7)nc6c5)cc4)ccc3[nH]2)cc1 [MMV011895] | 97 |  | 98 | 99 | 12.8 | 100 | 6.98 | 99 | 
21 | CC(NCc1ccccc1)c1cc(Cl)ccc1O (stereo not drawn) [MMV665789] | 72 | 89 | 103 | 100 |  |  |  |  | 

Row | Structure (SMILES) | cytotoxicity at 50 µM (HepG2-A16-CD81EGFP cells; [2]) [%] | cytotoxicity at 50 µM (HepG2-A16-CD81EGFP cells; [3]) [%] | inhibition at 50 µM [1, 4] [%] | inhibition at 50 µM [1, 5] [%] | IC50 (HepG2-A16-CD81EGFP cells) [µM] | inhibition at 50 µM (HepG2-A16-CD81EGFP cells) [%] | IC50 [1, 6] [µM] | inhibition at 50 µM [1, 7] [%] | IC50 [1, 8] [µM]
22 | O=C(NNc1cc(N2CCCC2)nc(N2CCCC2)n1)c1ccccc1 [MMV396770] | 29 |  | 97 | 98 |  |  |  |  | 
23 | Cc1ccc(S(=O)(=O)c2c(COC(=O)c3cccc(C)c3)c(-c3ccccc3)nn2C)cc1 [MMV665936] | 27 |  | 102 | 103 |  |  |  |  | 
24 | CCN(CC)CCNc1ncnc2c1[nH]c1ccc(Cl)cc12 [MMV396703] | 95 | 98 | 103 | 106 |  |  |  |  | 
25 | CCOC(=O)C1=CN(C)C=C(C(=O)OCC)C1c1cc(Br)c(OCC)c(OC)c1 [MMV006656] | 50 |  | 103 | 103 | > 50 | 31 | 8.23 | 99 | 
26 | O=C(Nc1ccc(CN2CCOCC2)cc1)c1ccc(-c2ccc(Br)cc2)o1 [MMV665901] | 101 | 102 | 104 | 106 |  |  |  |  | 
27 | COC(=O)c1ccc(C2C3=C(O)CC(c4ccc(F)cc4)CC3=Nc3ccccc3N2C(=O)c2ccccc2)cc1 (stereo not drawn) [MMV011438] | -12 |  | 98 | 96 | > 50 | 8 | 3.16 | 97 | 
28 | O=C(O)C1Cc2c([nH]c3ccccc23)C(c2ccc(Cl)cc2Cl)N1 (stereo not drawn) [MMV008138] | 49 | 53 | 88 | 91 |  |  |  |  | 
29 | Cc1ccc2nc(C)cc(Nc3cccc(C(F)(F)F)c3)c2c1 [MMV000326] | 100 |  | 103 | 103 |  |  |  |  | 
30 | Cc1ccc(NC(=O)Nc2cccc(Cl)c2)cc1F [MMV000911] | 85 | 89 | 104 | 105 |  |  |  |  | 
31 | CC(=O)c1ccc(NC(=O)CSc2nc(-c3ccccc3Cl)ns2)cc1 [MMV666124] | 96 |  | 104 | 104 |  |  |  |  | 
32 | CCOC(=O)c1c(C)n(-c2ccccc2)c2ccc(OC(=O)c3cc(OC)c(OC)c(OC)c3)cc12 [MMV396664] | 61 |  | 100 | 101 |  |  |  |  | 
33 | O=C(Nc1ccc(-c2nc3cc4ccccc4cc3[nH]2)cc1)c1cccc(Br)c1 [MMV019241] | 41 |  | 91 | 91 |  |  |  |  | 
34 | Cc1cc(Nc2ccc(OCc3ccccc3)cc2)nc2cc(O)ccc12 [MMV007181] | 98 |  | 103 | 103 |  |  |  |  | 
35 | CC1CC2=C(CC1CNCCCN(C)C)C(C)(C)CCC2 (stereo not drawn) [MMV665830] | 98 |  | 102 | 102 |  |  |  |  | 
36 | Cc1ccc(C2CC(C(F)(F)F)n3nc(C(=O)N4CCN(C(c5ccccc5)c5ccccc5)CC4)cc3N2)cc1 (stereo not drawn) [MMV000699] | 49 |  | 102 | 101 |  |  |  |  | 
37 | CCn1nc(-c2ccc(C(=O)OC)cc2)nc2c(=O)n(C)c(=O)nc1-2 [MMV306025] | 99 | 101 | 104 | 105 |  |  |  |  | 
38 | COc1ccc(C(=O)C(CCC(CNC(C)(C)C)C(=O)c2ccc(OC)cc2)CNC(C)(C)C)cc1 (stereo not drawn) [MMV007591] | 101 |  | 103 | 104 | 25.3 | 92 | 7.2 | 99 | 
39 | COc1ccc(-c2c(C)nn3c(N)c(C#N)cnc23)cc1OC [MMV396797] | 72 | 77 | 104 | 106 | 25.8 | 55 | 1.63 | 101 | 
40 | c1ccc(Cn2c(N=Nc3c(Nc4ccccc4)ccc4ccccc34)nc3ccccc32)cc1 [MMV666023] | 83 | 86 | 99 | 98 | 12 | 83 | 4.21 | 100 | 
41 | O=C(Nc1ccc(F)c(Cl)c1)Nc1ccc(Cl)c(Cl)c1 [MMV665953] | 97 | 98 | 103 | 102 | 5.02 | 99 | 0.85 | 101 | 
